Measurements from US6887894B2, “Use of lipoic acid for improving the bioavailability of mineral salts” (BASF Aktiengesellschaft, priority 2000, dated 2005).
Several values for one entry are separate records, joined by “and”; a condition that tells them apart may be missing. Identical values can stand only once. Marks after values point to notes of the source that are not given here.

What was measured:
Type in all cases: in vivo
[1] = Study 1/Study 2: bioavailability of Zn lipoate and ZnSO4 in rats (Example 4, Comparison Example 1)
Experimental: Male Albino rats (Wistar) of an initial weight of 40 g were used. The animals were kept during each 28-day experimental period at a room temperature of 22° C., a relative humidity of approximately 55% and in a 12-hour light-dark cycle. The rats were housed individually in Makrolon cages with stainless steel bottoms which permitted controlled feed intake and quantitative collection of feces and urine. The feed was provided once a day at 8^00. The live mass of the rats was determined weekly, feces and urine were collected every day at 10^00 and 17^00. At the end of the experiment, the rats were decapitated after chloroform anesthesia. • 4.2 Description of the diets and experimental design
6 rats are used per experimental group. The mealy diets were administered ad lib. […] The control group (group 1) received the PA-free base diet.
The amounts of feces and urine produced separately in the metabolic cages are collected quantitatively every day and stored at −22° C. To avoid any losses of N in the urine collection vessels, 1 ml of 20% strength HCl (Suprapur) is added to each of the vessels daily. For further analysis, the sample material is freeze-dried for 48 h. • 4.3.2 Organ and tissue samples
The right femur, liver and testes are removed immediately after decapitation and complete exsanguination of the animals and the fresh mass is determined. The samples are sealed in plastic film and stored at −22° C. until further analysis. • 4.3.3 Blood
The rats are decapitated at the end of the experiment after complete narcosis with chloroform and the blood collected in heparinized plastic tubes. 40 I.U. of heparin sodium are introduced per ml of blood. […]
Zinc is determined by means of atomic absorption spectrophotometry (AAS) in an acetylene flame. • 4.5 Diagnosis of zinc status • 4.5.1 Determination of the plasma zinc concentration
The plasma zinc concentration is measured directly in the flame by means of AAS (Philips, PIJ 9400). […]
The enzyme activity is measured kinetically on a semimicroscale at a wavelength of 405 nm and 25° C. using a UV spectrophotometer. […]

[2] = Study 3: zootechnical parameters (feed intake, live weight) of growing rats; settings: for LW Gain: 28 days; for Live weight d0: initial weight
Experimental: (§1) 36 male Wistar albino rats (Harlan Winkelmann, Borchen) having an initial weight of 47.0±2.63 g were randomly divided into 6 groups each of 6 animals and fed the diets specified in Table 7 (experimental design) and Section 5.2 over a period of 28 days. The animals were kept individually in Makrolon cages on stainless grids under standard conditions (22° C., 55% relative humidity, 12 hour light/dark rhythm). Feed and deionized drinking water were available to the experimental animals ad libitum. During the 2nd and 3rd experimental week (metabolism phase) feces were collected quantitatively. After completion of the experimental phase (day 28), the animals were decapitated under CO2— anesthesia, exsanguinated and the tissue to be analyzed was removed. Groups Ib, IIb and IIIb here are Example 5, while Groups Ia, IIa and IIIa are Comparison Example 2.
Parameters used to estimate Zn availability were the zootechnical parameters feed intake, live weight development and live weight increase, apparent Zn absorption, alkaline phosphatase activity in plasma, plasma and femur Zn concentration and metallothionin concentration in liver tissue. • 5.2 Experimental diets
The experimental animals were fed semisynthetic diets based on high-purity components (corn starch, egg albumin protein, sucrose, soybean oil and cellulose) over a period of 28 days (see Table 8 for composition of the base diet), the experimental diets differing with respect to the type of zinc compound supplemented, the absolute Zn concentration and the phytic acid content (0.4% PA from NaPA, Sigma-Aldrich, Steinheim) (see Table 7).
Zn supplements used were Zn ((R)-α-Lipoat)2(H2O)2 from Example 1 (Example 5) and Zn sulfate (ZnSO4.7 H2O analytical grade, Merck, Darmstadt) (Comparison Example 2). The Zn concentrations of the experimental diets Ia-IIb were set at a level of 10 mg/kg of diet estimated to be marginal for growing rats, in order to enable investigation of the availability of the Zn supplements under test in the suboptimun supply range.

[3] = Study 3: Zn intake, fecal excretion and apparent absorption of zinc; settings: rats
Experimental: as §1
During the two-week metabolism phase, the rat feces were collected daily, adherent feed residues and other impurities were removed and the samples were stored at −20° C. At the end of the metabolism period the fecal weight was determined quantitatively and feces were then freeze-dried under vacuum over a period of 48 h (Gamma 1-20, Christ, Osterode). The dried samples were finely around using a domestic grinder (Moulinette electronic 89902) and stored at ambient temperature in PE bottles.
A sample aliquot of 1.5 g or the freeze-dried and ground fecal samples was dried for 24 h at 105° C. to remove residual water and then ashed in a muffle furnace at 450° C. for 21 h. The ash residue was dissolved by acid addition and then analyzed quantitatively. The Zn concentration in the fecal samples was determined by flame-AAS (Philips, PU 9400, Kassel). • 5.3.4 Diagnosis of Zn status
(§2) Zn absorption was calculated, without taking into account endogenous level as a difference between element […] and fecal excretion (=apparent absorption). Plasma Zn concentration was determined by AAS (Philips, PU 9400, Kassel). The samples were diluted with 0.1 M HCl in a ratio of 1:20 (v/v). The activity of the Zn metalloenzyme alkaline phosphatase (AP) (E.C. 3.1.3.1) wan assayed using the individual chemicals diethanolamine buffer and p-nitrophenyl phosphate according to the recommendations of the […] FÜR […] CHIMIE [German Clinical Chemistry Society] ([…] FÜR […] CHEMIE (1972). Standardmethode zur Bestimmung der Aktivität der alkalischen Phosphatase (AP) [Standard Method for Determining Alkaliur Phosphatase (AP) Activity]. Z. klin. Chem u. klin. Biochemie. 10, 191). • 5.3.5 Metallothionin in liver tissue

[4] = Study 3: Zn concentration in the femur; settings: rats; for Zn concentration in Femur: day 28
Experimental: as §1
The ash solutions were prepared by the principle of wet ashing. The sample material was admixed with 10 ml of 65% strength HNO3 (Merck, Suprapur) and then boiled under a reflux condenser in a digestion apparatus (Gerhardt SMA-20, Bonn). This oxidatively degraded the organic matrix and completely mineralized the test material. The Zn concentration was determined in the ash solutions by flame-AAS (Philips, PU 9400, Kassel). • 5.3.3 Analysis of the fecal samples

[5] = tested on: alkaline phosphatase (AP) (E.C. 3.1.3.1); assay: Study 3: alkaline phosphatase activity in plasma; settings: rats, day 28
Experimental: as §1, §2

[6] = tested on: metallothionin; assay: Study 3: metallothionin in liver tissue; settings: rats; for Metallothionin concentration in liver tissue: day 28
Experimental: as §1
Total MT concentration in liver tissue was determined using the cadmium-binding method of EATON and TOAL (EATON, D. L., TOAL, B. F. (1982): Evaluation of the cadmium/hemoglobin affinity assay for the rapid determination of metallothionein in biological tissues. Toxicol Appl. Pharmacol. 66, 134-142) in a modification tested at the Giessen Institute (LEUNERT, V. (1994): Einfluβ von Zink sowie fetalem Kälberserum, bovinem Serumalbumin und calciummobilisierenden Rezeptoragonlsten auf Metallothionein in primär kultivierten Rattenhepatocyten [Effect of zinc and fecal calf serum, vine serum albumin and calcium-immobilizing receptor agonists on metallothionin in primary cultivations of rat hepatocytes]. Inaugural dissertation at the Institut für Tierernahrung und Ernährungse-physiologie [Institute of Animal Nutrition and Nutritional Physiology] of the University of Cicesen, Verlag Shaker, Aachen, PALLAUF et al. 1995). The protein content in liver homogenates war determined using the Lowry-Folin method (DAWSON, R. M. C. ELLIOTT, D C; JONES, K. M. (1986): Data for biochemical research, 3rd ed., Clarendon Press, New York, 543). • 5.3.5. Statistical analysis

[7] = 10 ppm Zn, PA-free diet (group I)
[8] = 20 ppm Zn + 0.4% PA (group III)

- absolute Zn absorption, Zn lipoate group versus Zn sulfate group ([3]; 20 mg Zn/kg of diet + 0.4% PA (groups IIIa, IIIb)): statistically significant higher
- Apparent absorption of Zn ([3]; 10 ppm Zn + 0.4% PA (group II)): 47.3 ^a %
- Apparent absorption of Zn (absolute) ([3]; 10 ppm Zn + 0.4% PA (group II)): 0.446 ^a mg/14 d
- Fecal excretion of Zn ([3]; 10 ppm Zn + 0.4% PA (group II)): 0.494 ^a mg/14 d
- Apparent absorption of Zn [3, 7]: 73.6 ^b %
- Apparent absorption of Zn (absolute) [3, 7]: 1.24 ^b mg/14 d
- Fecal excretion of Zn [3, 7]: 0.445 ^a mg/14 d
- Apparent absorption of Zn [3, 8]: 48.4 ^a %
- Apparent absorption of Zn (absolute) [3, 8]: 1.60 mg/14 d and 1.60 ^c mg/14 d
- Fecal excretion of Zn [3, 8]: 1.71 ^b mg/14 d
- apparent Zn absorption (%), effect of Zn lipoate supplementation ([3]; PA diets, group IIa to IIb and IIIa to IIIb): increase
- Zn concentration in Femur ([4]; 10 ppm Zn + 0.4% PA (group II)): 41.2 ^a μg/g FW
- Zn concentration in Femur [4, 7]: 79.2 ^c μg/g FW
- Zn concentration in Femur [4, 8]: 64.1 ^b μg/g FW
- level of Zn incorporation into the femur tissue, compared with Zn sulfate ([4]; with addition of phytate): beneficial effect
SMILES: O=C(O)CCCC[C@@H]1CCSS1 [Zn lipoate, Zn((R)-α-lipoate)2(H2O)2]
- zinc deficiency symptoms (anorexia, alopecia, depression of growth) ([1]; diet with 0.4% NaPA, high dose 20 mg Zn/kg of feed, 28 days): disappear completely
- Zn status parameters of blood plasma (Zn concentration, free zinc binding capacity, alkaline phosphatase activity) and femur and liver Zn concentration ([1]; in comparison with Zn sulfate): improved
- Feed intake Total ([2]; 10 ppm Zn + 0.4% PA (group II)): 186 ^a g/28d
- Feed intake d1-d7 ([2]; 10 ppm Zn + 0.4% PA (group II)): 39.5 ^ab g
- Feed intake d8-d14 ([2]; 10 ppm Zn + 0.4% PA (group II)): 46.5 ^a g
- Feed intake d15-d21 ([2]; 10 ppm Zn + 0.4% PA (group II)): 48.2 ^a g
- Feed intake d22-d28 ([2]; 10 ppm Zn + 0.4% PA (group II)): 51.3 ^a g
- Live weight d7 ([2]; 10 ppm Zn + 0.4% PA (group II)): 60.0^ab g
- Live weight d14 ([2]; 10 ppm Zn + 0.4% PA (group II)): 82.5^a g
- Live weight d21 ([2]; 10 ppm Zn + 0.4% PA (group II)): 99.1^a g
- Live weight d28 ([2]; 10 ppm Zn + 0.4% PA (group II)): 114.2^a g
- LW Gain ([2]; 10 ppm Zn + 0.4% PA (group II)): 67.0^a g
- Live weight d0 ([2]; 10 ppm Zn + 0.4% PA (group II)): 47.2 g
- Feed intake Total [2, 7]: 307 ^b g/28d
- Feed intake d1-d7 [2, 7]: 54.9 ^ab g
- Feed intake d8-d14 [2, 7]: 78.7 ^c g
- Feed intake d15-d21 [2, 7]: 86.9 ^c g
- Feed intake d22-d28 [2, 7]: 86.5 ^b g
- Live weight d7 [2, 7]: 75.6^ab g
- Live weight d14 [2, 7]: 122.5^b g
- Live weight d21 [2, 7]: 159.2^c g
- Live weight d28 [2, 7]: 185.8^c g
- LW Gain [2, 7]: 138.7^c g
- Live weight d0 [2, 7]: 47.1 g
- Feed intake Total [2, 8]: 300 ^b g/28d
- Feed intake d1-d7 [2, 8]: 60.0 ^b g
- Feed intake d8-d14 [2, 8]: 77.3 ^c g
- Feed intake d15-d21 [2, 8]: 79.2 ^bc g
- Feed intake d22-d28 [2, 8]: 83.5 ^b g
- Live weight d7 [2, 8]: 77.9^b g
- Live weight d14 [2, 8]: 119.1^b g
- Live weight d21 [2, 8]: 147.4^bc g
- Live weight d28 [2, 8]: 173.2^bc g
- LW Gain [2, 8]: 125.9^bc g
- Live weight d0 [2, 8]: 47.3 g
- total feed intake, change owing to Zn-α-lipoate feeding ([2]; 28-day period, versus Zn sulfate groups): increase
- live weight gain, Zn lipoate compared with Zn sulfate ([2]; in each case (groups I, II, III)): increase
- Alkaline Phosphatase activity in plasma ([5]; 10 ppm Zn + 0.4% PA (group II)): 225 ^a mU/ml Plasma
- Alkaline Phosphatase activity in plasma [5, 7]: 365 ^b mU/ml Plasma
- Alkaline Phosphatase activity in plasma [5, 8]: 384 ^b mU/ml Plasma
- Metallothionin concentration in liver tissue ([6]; 10 ppm Zn + 0.4% PA (group II)): 7.94 ng MT/mg Protein
- Metallothionin concentration in liver tissue [6, 7]: 8.32 ng MT/mg Protein
- Metallothionin concentration in liver tissue [6, 8]: 8.71 ng MT/mg Protein
- hepatic MT concentration, Zn lipoate versus ZnSO4 as Zn source ([6]; all groups (I, II and III)): nominal increases
